Data: patent US8314148B2, “Selective hydroxamate based MMP inhibitors” (Novartis AG, priority 2006, dated 2012)

How the values were obtained:
[1] = target: MMP12 (Homo sapiens, UniProt P39900); assay: MMP assay, determination of IC50 (fluorescence); type: biochemical; settings: human MMP 0.5 nM, substrate 5 μM, 1 hour preincubation, pH 7.5
Method: (§1) The activities of a compound according to the present invention can be assessed by the following methods well-described in the art. Determination of IC50 values in MMP assays
(§2) Dose-response curves are prepared in DMSO/water solution (90/10, v/v) in 96-well plate format and stored at 4° C. up to 24 hours prior to analysis. In all steps poly-propylene pipette tips are changed avoiding cross-contamination or compound carry over. On the day of the assay, each compound is further diluted (1/33.33; 96-well plate format) in water containing 0.05% CHAPS to 3-times the desired assay concentration. In the assay for each compound, 11 concentrations ranging from 30 to 0.0003 μM are investigated (0.0003, 0.001, 0.003, 0.01, 0.03, 0.1, 0.3, 1, 3, 10, 30 μM). A three-fold concentrated MMP solution is prepared in two-fold concentrated assay buffer 100 mM Tris-HCl buffer, pH 7.5 containing 100 mM NaCl, 10 mM CaCl2, 10 μM ZnCl2, 0.05% Brij-35 and dispensed in 96-well Greiner plates. Similarly a three-fold concentrated substrate solution (15 μM) is prepared in 100 mM Tris-HCl buffer, pH 7.5 containing 100 mM NaCl, 10 mM CaCl2, 10 μM ZnCl2, 0.05% Brij-35 and dispensed in 96-well Greiner plates. Transfer of compounds, substrate and enzyme from 96-well plates to 384-well plates is made using either Cybi™well or Cybi™disk devices.
(§3) The assay procedure is the following, in each well, 10 μL water/CHAPS (±test compound) is added, followed by 10 μL human MMP solution (final assay concentration 0.5 nM). After 1 hour of incubation at room temperature the assay is started by addition of 10 μL substrate solution (final concentration 5 μM).
(§4) The reaction is allowed to proceed for 1 hours at ambient temperature (˜20-22° C.). At the end of the incubation the fluorescence is measured as described above.
(§5) The apparent inhibition constant, IC50, is determined from the plot of percentage of inhibition vs. inhibitor concentration using non-linear regression analysis software (XLfit, Vers. 3.0.5; ID Business Solution Ltd., Guildford, Surrey, UK).

[2] = target: T1, MMP02 (Homo sapiens, UniProt P08253); assay: MMP assay, determination of IC50 (fluorescence); type: biochemical; settings: human MMP 0.5 nM, substrate 5 μM, 1 hour preincubation, pH 7.5
T1 sequence (P08253 110-660): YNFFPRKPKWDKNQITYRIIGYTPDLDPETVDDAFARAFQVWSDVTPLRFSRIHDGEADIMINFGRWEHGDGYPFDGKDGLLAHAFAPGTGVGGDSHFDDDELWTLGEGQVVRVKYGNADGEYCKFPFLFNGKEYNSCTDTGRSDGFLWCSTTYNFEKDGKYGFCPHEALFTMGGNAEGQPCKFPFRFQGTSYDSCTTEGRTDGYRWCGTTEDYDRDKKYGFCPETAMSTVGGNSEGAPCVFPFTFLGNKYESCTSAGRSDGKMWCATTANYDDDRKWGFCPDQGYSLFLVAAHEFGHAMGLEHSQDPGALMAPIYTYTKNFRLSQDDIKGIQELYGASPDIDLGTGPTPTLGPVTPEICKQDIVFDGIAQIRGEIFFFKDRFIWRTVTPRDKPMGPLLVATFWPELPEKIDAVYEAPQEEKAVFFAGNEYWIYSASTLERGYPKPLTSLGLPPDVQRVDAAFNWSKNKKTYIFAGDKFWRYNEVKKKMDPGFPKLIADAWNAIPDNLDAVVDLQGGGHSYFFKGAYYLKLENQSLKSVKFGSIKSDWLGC
Method: as §1, §2, §3, §4, §5

[3] = target: MMP09 (Homo sapiens, UniProt P14780); assay: MMP assay, determination of IC50 (fluorescence); type: biochemical; settings: human MMP 0.5 nM, substrate 5 μM, 1 hour preincubation, pH 7.5
Method: as §1, §2, §3, §4, §5

[4] = target: MMP13 (Homo sapiens, UniProt P45452); assay: MMP assay, determination of IC50 (fluorescence); type: biochemical; settings: human MMP 0.5 nM, substrate 5 μM, 1 hour preincubation, pH 7.5
Method: as §1, §2, §3, §4, §5

MMP12, sequence (P39900 106-470): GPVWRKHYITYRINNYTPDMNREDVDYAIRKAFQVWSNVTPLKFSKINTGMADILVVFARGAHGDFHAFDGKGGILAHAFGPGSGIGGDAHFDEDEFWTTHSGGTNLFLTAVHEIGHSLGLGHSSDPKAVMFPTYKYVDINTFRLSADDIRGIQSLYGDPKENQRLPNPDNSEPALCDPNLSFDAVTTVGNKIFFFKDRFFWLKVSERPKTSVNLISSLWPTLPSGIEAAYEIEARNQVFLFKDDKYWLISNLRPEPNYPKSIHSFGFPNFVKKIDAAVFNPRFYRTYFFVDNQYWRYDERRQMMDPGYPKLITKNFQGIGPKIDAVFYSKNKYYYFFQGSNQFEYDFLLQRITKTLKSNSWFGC
MMP09, sequence (P14780 94-707): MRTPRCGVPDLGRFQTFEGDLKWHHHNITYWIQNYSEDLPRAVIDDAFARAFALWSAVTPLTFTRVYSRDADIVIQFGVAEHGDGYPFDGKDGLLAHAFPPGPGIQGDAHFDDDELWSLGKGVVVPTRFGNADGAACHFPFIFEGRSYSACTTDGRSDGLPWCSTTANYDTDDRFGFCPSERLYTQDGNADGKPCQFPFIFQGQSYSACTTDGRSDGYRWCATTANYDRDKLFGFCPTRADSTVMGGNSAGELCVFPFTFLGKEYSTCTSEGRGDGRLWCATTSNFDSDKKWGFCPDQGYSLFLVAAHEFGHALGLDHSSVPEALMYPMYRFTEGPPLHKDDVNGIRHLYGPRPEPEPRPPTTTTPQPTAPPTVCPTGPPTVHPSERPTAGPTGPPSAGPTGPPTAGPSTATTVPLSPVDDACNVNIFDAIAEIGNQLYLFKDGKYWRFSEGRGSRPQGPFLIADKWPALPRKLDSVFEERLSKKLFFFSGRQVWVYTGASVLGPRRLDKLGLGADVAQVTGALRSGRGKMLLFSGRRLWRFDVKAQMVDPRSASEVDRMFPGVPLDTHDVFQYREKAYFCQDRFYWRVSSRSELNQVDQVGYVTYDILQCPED

Compound | melting point [°C] | IC50 [1] [µM] | IC50 [2] [µM] | IC50 [3] [µM] | IC50 [4] [µM]
COc1cccc(S(=O)(=O)N(CCC(C)C)[C@@H](C(=O)NO)C(C)(C)C)c1 [Example 1, N-isoamyl-N-(3 Methoxyphenylsulfonyl)D-tert-leucine hydroxamic acid] | 115.5 to 116.5 | – | – | – | –
CC(C)CCN([C@@H](C(=O)NO)C(C)(C)C)S(=O)(=O)c1cccc(N)c1 [Example 2-28] | – | 0.05 | 3.15 | 3.1 | 1.55
CC(C)CCN([C@@H](C(=O)NO)C(C)(C)C)S(=O)(=O)c1cccc(Cl)c1 [Example 2-4] | – | 0.0175 | 1.7 | 0.725 | 0.095
CCOc1cccc(S(=O)(=O)N(CCC(C)C)[C@@H](C(=O)NO)C(C)C)c1 [Example 2-17] | – | 0.226 | 28.3 | 12.5 | 2.44
CCc1cccc(S(=O)(=O)N(CCC(C)C)[C@@H](C(=O)NO)C(C)(C)C)c1 [Example 2-7] | – | 0.225 | 13.9 | 7.83 | 0.5
COC(=O)CN([C@@H](C(=O)NO)C(C)(C)C)S(=O)(=O)c1cccc(OC)c1 [Example 2-26] | – | 0.055 | 8.75 | 3.7 | 0.85
COc1cccc(S(=O)(=O)N(CC(=O)N(C)C)[C@@H](C(=O)NO)C(C)(C)C)c1 [Example 2-27] | – | 0.3 | ≥ 40.3 | 22.7 | 4.95
CC(=O)Nc1cccc(S(=O)(=O)N(CCC(C)C)[C@@H](C(=O)NO)C(C)(C)C)c1 [Example 2-13] | – | 0.035 | 10.2 | 17.4 | 1.15
COc1cccc(S(=O)(=O)N(Cc2ccccc2)[C@@H](C(=O)NO)C(C)(C)C)c1 [Example 2-23] | – | 0.145 | 12.5 | 3.5 | 0.8
COc1cccc(S(=O)(=O)N(CC(C)C)[C@@H](C(=O)NO)C(C)(C)C)c1 [Example 2-6] | – | 0.0175 | 11.1 | 1.5 | 0.25

The remaining lines, values ahead:

melting point [°C] | IC50 [1] [µM] | IC50 [2] [µM] | IC50 [3] [µM] | IC50 [4] [µM] | Compound
– | 0.0055 | 7.7 | 0.4 | 0.07 | COc1cccc(S(=O)(=O)N(CCCc2cccnc2)[C@@H](C(=O)NO)C(C)(C)C)c1 [Example 5]
– | 0.0015 | 1.35 | 0.9 | 0.05 | CCNC(=O)Nc1cccc(S(=O)(=O)N(CCCN2CCCCC2)[C@@H](C(=O)NO)C(C)(C)C)c1 [Example 4-4]
– | 0.4 | > 30 | > 30 | 6.55 | CCCN([C@@H](C(=O)NO)C(C)(C)C)S(=O)(=O)c1cccc(C(=O)OC)c1 [Example 2-39]
– | 0.065 | 3.7 | 6.9 | 1.2 | CC(C)CCN([C@@H](C(=O)NO)C(C)(C)C)S(=O)(=O)c1cccc(NC(=O)NC(C)C)c1 [Example 2-34]
– | 0.002 | 3 | 0.3 | 0.03 | COc1cccc(S(=O)(=O)N(CCO)[C@@H](C(=O)NO)C(C)(C)C)c1 [Example 6]
– | 0.65 | > 30 | > 30 | 25.5 | CCCN([C@@H](C(=O)NO)C(C)(C)C)S(=O)(=O)c1cccc(C(=O)NC)c1 [Example 2-38]
